From patent publication US20250057743A1, “Oral Care Compositions Comprising Dicarboxylic Acid” (The Procter & Gamble Company, priority 2020, published 2025)

Tests used:
[1] = human, 1 %
Experimental: The enamel softening method is used to determine the potential of oral care compositions to damage (or not to damage) dental enamel with repeated exposure.
A core of sound human enamel with a diameter of 3-4 mm was extracted from whole human teeth. The cores were mounted in dental acrylic and the surfaces were ground using 600 grit paper. Increasingly fine lapping papers were then used to polish the surface to a 1 um polish. Samples were sonicated in deionized water for 30 min. Enamel specimens were then rinsed with deionized water and wiped to remove any residual polish. Each enamel specimen was inspected and samples with large cracks or uneven calcification were discarded. […]
Also on the day before the experiment, the Vickers hardness of each enamel specimen was measured using a hardness indenter at three separate locations spread across the enamel surface. A 50g load was applied for 10 seconds, and the diagonal lengths of the resulting indents were measured using a 20× magnification objective. […]
On the day following the cycling experiment, the post-cycling hardness was obtained for each specimen using a similar procedure to that described for the pre-cycling hardness measurements. The change in hardness was calculated for each specimen by subtracting the pre-cycling hardness from the post-cycling hardness measurement. […]

Slurry pH of composition = format: physicochemical; conditions: Table 10, treatments of the enamel softening study (1:3 slurry of toothpaste to water)
From the text: The pH of the oral care compositions as described herein can be from about 4 to about 7, from about 4 to about 6, from about 4.5 to about 6.5, or from about 4.5 to about 5.5. The pH of a mouthrinse solution can be determined as the pH of the neat solution. The pH of a dentifrice composition can be determined as a slurry pH, which is the pH of a mixture of the dentifrice composition and water, such as a 1:4, 1:3, or 1:2 mixture of the dentifrice composition and water.

Δ SMH (change in surface microhardness) [1]: 175.68
Slurry pH (Slurry pH of composition): 2.19
Structure (SMILES): O=C(O)CC(O)(CC(=O)O)C(=O)O [1% Citric Acid, citric acid]
